According to US20230233567A1, “BELVARAFENIB FOR USE IN CANCER TREATMENT” (Hanmi Pharm. Co., Ltd., priority 2020, published 2023):
Where “and” joins values, the source holds several entries; their conditions need not be identical. Equal entries are not always repeated.

Assays:
[1] = test system: locally advanced and/or metastatic solid tumors carrying mutations in the BRAF, KRAS, and/or NRAS genes; experiment: Phase I dose-escalation tumor response (RECIST v1.1); format: in vivo, human; settings: for Best Change (size of target lesions from baseline): partial responder; for tumor response duration: n=1; for BORR (unconf.) / DCR / ORR (conf.) / PFS Median / DOR Median: Dose-Escalation
Method: Phase I dose-escalation (NCT02405065) and dose-expansion studies (NCT02405065) were conducted in patients with locally advanced and/or metastatic solid tumors carrying mutations in the BRAF, KRAS, and/or NRAS genes.
Eligible patients had measurable or evaluable disease per the Response Evaluation Criteria in Solid Tumors version 1.1 (RECIST v1.1). See Eisenhauer E A, Therasse P, Bogaerts J, et al., “New response evaluation criteria in solid tumours: revised RECIST guideline (version 1.1)”, Eur J Cancer 45:228-47, 2009. All patients had progressed on one or more prior lines of therapy or had no available standard therapy at the time of study entry. Additional eligibility criteria included Eastern Cooperative Oncology Group (ECOG) performance status ≤2 and life expectancy ≥12 weeks. Patients with cardiovascular abnormalities as mean QTcF>440 msec were excluded from the dose-expansion phase.
Tumor response assessments were performed radiographically by the investigator using RECIST version 1.1 at baseline, and at the end of every two treatment cycles until discontinuation. Safety evaluation (Safety Set) included all patients who received one or more doses of belvarafenib and efficacy evaluation (Full Analysis Set) included subjects who received at least one dose of belvarafenib and had at least one post-dose tumor response assessment.

[2] = test system: NRAS^G13D mutant K1735 syngeneic mouse melanoma model; experiment: In vivo antitumor activity, K1735 syngeneic model
Method: In vivo antitumor activity of belvarafenib was investigated in NRAS^G13D mutant K1735 syngeneic mouse melanoma model. Seven animals per group were treated with vehicle (control) and with belvarafenib at a dose of 7.5 or 15 mg/kg once daily via oral gavage.

[3] = BRAF^V600E Melanoma, 450 mg BID

`Cc1ccc2c(Nc3cccc(Cl)c3F)nccc2c1NC(=O)c1csc2c(N)ncnc12` [Belvarafenib] was tested, and the “treatment Duration” value ([1]; BRAF^V600E CRC, 200 mg BID) was 303 days and 255 days, the “treatment Duration” value ([1]; BRAF^V600E GIST, 200 mg BID) was 512 days and the “Best Change (size of target lesions from baseline)” value (shortened to “Best Change”) ([1]; BRAF^V600E GIST, 450 mg BID) was −38.1%. The “treatment Duration” value [1, 3] was 377 days, the “Best Change” value [1, 3] was −33.2% and the “treatment Duration” value ([1]; BRAF^V600E Melanoma, 800 mg BID) was 702 days. The tumor response duration ([1]; BRAFm GIST) was 36 weeks, the “BORR (unconf.)” value ([1]; All pts (N = 67)) was 7 (10.5) n (%) and the DCR ([1]; All pts (N = 67)) was 34 (50.6) n(%). For the same compound, the “ORR (conf.)” value ([1]; All pts (N = 67)) was 3 (4.5) n(%), the “PFS Median” value ([1]; All pts (N = 67)) was 11.5 weeks and the “DOR Median” value ([1]; All pts, 7 responders) was 24.0 weeks. The “BORR (unconf.)” value ([1]; NRASm mel. (N = 9)) was 4 (44.4) n (%), the DCR ([1]; NRASm mel. (N = 9)) was 6 (66.7) n(%) and the “ORR (conf.)” value ([1]; NRASm mel. (N = 9)) was 1 (11.1) n(%). The “PFS Median” value ([1]; NRASm mel. (N = 9)) was 25 weeks and 24.9 weeks, the “DOR Median” value ([1]; NRASm mel., 4 responders) was 17.8 weeks and the “treatment Duration” value ([1]; KRAS^G12C CRC, 100 mg BID) was 437 days. For the same compound, the “treatment Duration” value ([1]; KRAS^G12V Bladder, 300 mg BID) was 311 days, the “Best Change” value ([1]; KRAS^G12V Sarcoma, 450 mg BID) was −50.5% and the tumor response duration ([1]; KRASm sarcoma) was 18 weeks. The “treatment Duration” value ([1]; NRAS^G12C Melanoma, 800 mg BID) was 611 days, the “Best Change” value ([1]; NRAS^G12D Melanoma, 450 mg BID) was −44.4% and the “Best Change” value ([1]; NRAS^Q61 AND BRAF^V600E Melanoma, 450 mg BID) was −33.8%. For the same compound, the “treatment Duration” value ([1]; NRAS^Q61K Melanoma, 200 mg BID) was 307 days, the “treatment Duration” value ([1]; NRAS^Q61K Melanoma, 300 mg BID) was 278 days and the “Best Change” value ([1]; NRAS^Q61K Melanoma, 450 mg BID) was −36.2%. For the same compound, the “Best Change” value ([1]; NRAS^Q61R Melanoma, 450 mg BID) was −30.6%, the “patients with best overall response of partial response (PR)” value ([1]; dose-escalation, 67 patients) was 10.4% and the “best overall response rate [BORR]” value ([1]; dose-escalation, NRASm melanoma, 9 patients) was 44%. The “Day for maximum inhibition” value ([2]; 15 mg/kg) was 22, the Maximum weight loss ([2]; 15 mg/kg) was 2.2% and the Maximum inhibition rate ([2]; 15 mg/kg once daily oral gavage, 3 weeks) was 54.7%.
